ChEMBL document CHEMBL1201862, “PubChem BioAssay data set” (2004)
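Interpolation was linear, between the two tested concentrations surrounding the appropriate level; five concentrations were tested over 48 hours in 96-well plates. Abbreviation: GI50, concentration required for 50% inhibition of growth.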 Calls of active or inactive are those of the source. Cut-off read from the data, not from the text of the source: active = GI50 up to about 1.1 µM and inactive = higher.

What was measured:
Assay in all cases: NCI-60 cell line screen, 48 h
OVCAR-8 = test system: OVCAR-8
RPMI-8226 = test system: RPMI-8226
T47D = test system: T47D
SK-MEL-2 = test system: SK-MEL-2
SR = test system: SR
SF-539 = test system: SF-539
U-251 = test system: U-251
RXF 393 = test system: RXF 393
IGROV-1 = test system: IGROV-1
KM12 = test system: KM12
HOP-92 = test system: HOP-92
HOP-62 = test system: HOP-62
DU-145 = test system: DU-145
SK-MEL-28 = test system: SK-MEL-28
SN12C = test system: SN12C
SF-268 = test system: SF-268
HCT-116 = test system: HCT-116
Hs-578T = test system: Hs-578T
COLO 205 = test system: COLO 205
HCT-15 = test system: HCT-15
Malme-3M = test system: Malme-3M
NCI/ADR-RES = test system: NCI/ADR-RES
CCRF-CEM = test system: CCRF-CEM
HCC 2998 = test system: HCC 2998
UACC-257 = test system: UACC-257
TK-10 = test system: TK-10
SK-MEL-5 = test system: SK-MEL-5
CAKI-1 = test system: CAKI-1
PC-3 = test system: PC-3
LOX IMVI = test system: LOX IMVI
SNB-19 = test system: SNB-19
K562 = test system: K562
A498 = test system: A498
MDA-MB-231 = test system: MDA-MB-231
HT-29 = test system: HT-29
OVCAR-5 = test system: OVCAR-5
SF-295 = test system: SF-295
UO-31 = test system: UO-31
NCI-H460 = test system: NCI-H460
MCF7 = test system: MCF7
MDA-N = test system: MDA-N
EKVX = test system: EKVX
OVCAR-3 = test system: OVCAR-3
786-0 = test system: 786-0
MOLT-4 = test system: MOLT-4
M14 = test system: M14
HL-60 = test system: HL-60
ACHN = test system: ACHN
UACC-62 = test system: UACC-62
NCI-H23 = test system: NCI-H23
A549 = test system: A549
MDA-MB-435 = test system: MDA-MB-435
SK-OV-3 = test system: SK-OV-3
OVCAR-4 = test system: OVCAR-4
NCI-H226 = test system: NCI-H226
NCI-H522 = test system: NCI-H522

For O=[N+]([O-])/C(Cl)=C(\Sc1ccccc1)C(Cl)=C(Cl)Cl, the GI50 (OVCAR-8) was 191 nM (active), the GI50 (RPMI-8226) was 242 nM (active) and the GI50 (T47D) was 1280 nM (inactive). For the same compound, the GI50 (SK-MEL-2) was 1770 nM (inactive), the GI50 (SR) was 292 nM (active) and the GI50 (SF-539) was 1560 nM (inactive). For the same compound, the GI50 (U-251) was 1290 nM (inactive), the GI50 (RXF 393) was 975 nM (active) and the GI50 (IGROV-1) was 1280 nM (inactive). For the same compound, the GI50 (KM12) was 1790 nM (inactive), the GI50 (HOP-92) was 1910 nM (inactive) and the GI50 (HOP-62) was 2060 nM (inactive). The GI50 (DU-145) was 1710 nM (inactive), the GI50 (SK-MEL-28) was 1410 nM (inactive) and the GI50 (SN12C) was 373 nM (active). For the same compound, the GI50 (SF-268) was 1400 nM (inactive), the GI50 (HCT-116) was 147 nM (active) and the GI50 (Hs-578T) was 562 nM (active). For the same compound, the GI50 (COLO 205) was 282 nM (active), the GI50 (HCT-15) was 420 nM and the GI50 (Malme-3M) was 647 nM (active). The GI50 (NCI/ADR-RES) was 216 nM (active), the GI50 (CCRF-CEM) was 296 nM (active) and the GI50 (HCC 2998) was 1930 nM (inactive). The GI50 (UACC-257) was 404 nM (active), the GI50 (TK-10) was 1800 nM (inactive) and the GI50 (SK-MEL-5) was 540 nM (active). For the same compound, the GI50 (CAKI-1) was 1830 nM (inactive), the GI50 (PC-3) was 2010 nM (inactive) and the GI50 (LOX IMVI) was 207 nM (active). The GI50 (SNB-19) was 2220 nM (inactive), the GI50 (K562) was 294 nM (active) and the GI50 (A498) was 1720 nM (inactive). For the same compound, the GI50 (MDA-MB-231) was 264 nM (active), the GI50 (HT-29) was 355 nM (active) and the GI50 (OVCAR-5) was 1860 nM (inactive). For the same compound, the GI50 (SF-295) was 3430 nM (inactive), the GI50 (UO-31) was 284 nM (active) and the GI50 (NCI-H460) was 1540 nM (inactive). For the same compound, the GI50 (MCF7) was 159 nM (active), the GI50 (MDA-N) was 288 nM (active) and the GI50 (EKVX) was 2040 nM (inactive). The GI50 (OVCAR-3) was 1520 nM (inactive), the GI50 (786-0) was 308 nM (active) and the GI50 (MOLT-4) was 348 nM (active). The GI50 (M14) was 188 nM (active), the GI50 (HL-60) was 273 nM (active) and the GI50 (ACHN) was 1660 nM (inactive). For the same compound, the GI50 (UACC-62) was 647 nM (active), the GI50 (NCI-H23) was 473 nM (active) and the GI50 (A549) was 229 nM (active). For the same compound, the GI50 (MDA-MB-435) was 220 nM (active), the GI50 (SK-OV-3) was 4210 nM (inactive) and the GI50 (OVCAR-4) was 1490 nM (inactive). For the same compound, the GI50 (NCI-H226) was 2230 nM (inactive) and the GI50 (NCI-H522) was 260 nM (active).
